# Source: patent US20200253979A1, “THERAPEUTIC METHODS RELATING TO HSP90 INHIBITORS” (AI Therapeutics, Inc., priority 2017, published 2020)
# Where two headings read alike, the source gives them in different places.
# Key:
# MOLM-14 cells (FLT3-ITD) = assay: CellTiter-Glo cell viability (single agent and combination); format: cell-based; settings: 72 hours; for IC50: Homo sapiens, MOLM-14, 72 h, read-out: EC50 (cell viability)
# Procedure: HS-5 is a human marrow stromal cell line that secretes various growth factors sufficient to support hematopoietic progenitor growth (Roecklein et al., Blood, 1995) which thus mimics stromal conditions.
# Three cell lines which harbor FLT3-ITD were used for the drug combination studies (MV-4-11, MOLM-13, and MOLM-14).
# Cells were treated with the drugs (single agent or combination) for 72 hours. Drug combination activity was determined by first measuring cell viability with CellTiter-Glo®, followed by the calculation of the EC50 corresponding to single agent activity, using the R DRC package (R Core Team, 2017). The combination index (CI) values were computed using the Chou-Talalay method (Chou T, Cancer Research., 2010 70(2): 440-6.), based on the viability of each drug alone and in combination, across all concentrations tested. In brief, CI was defined as: […]
# Loss of function mutations of KDM6A are observed in FLT3-ITD AML (Garg et al., 2015 Blood 126 (22):2491-501). […] To therapeutically exploit this finding, we hypothesized that inhibiting EZH2, the histone H3K27 methyltransferase that functionally opposes KDM6A, would enhance sensitivity to MPC-0767. To test this hypothesis, a FLT3-ITD cell line (MV-4-11) was used and treated with either of the two clinical stage EZH2 inhibitors, EPZ-6438 and CPI-1205, at 8 different concentrations for 4 days. Following this time, cells were counted, reseeded and treated with 8 concentrations of EZH2 inhibitor alone, 8 concentrations of MPC-0767 alone, or the combination of the two (64 total combinations).
# [1] = system: cell surface FLT3 in MOLM-13 cells; assay: Cell surface FLT3 by flow cytometry; format: cell-based, human; settings: 24 hours
# Procedure: (§1) To determine whether MPC-0767 can promote the degradation of FLT3-ITD and abolish downstream signaling, MV-4-11 and MOLM-13 cells were treated with vehicle or MPC-0767 (1 μM) for 24 hours. Cells were harvested for flow cytometry to assess cell surface FLT3 protein abundance. In addition, the measurement of a key phosphorylation site of S6 (phospho-S6) was used as a marker for oncogenic FLT3-ITD signaling (Zimmerman et al., Blood. 2013 122(22): 3607-3615). Indeed, in both MV-4-11 and MOLM-13 cells treated with MPC-0767 there was a >65% reduction in cell surface FLT3 (FIGS. 10A and 10B, respectively) and >70% reduction in phospho-S6 (FIGS. 10C and 10D, respectively).
# We next explored whether the synergistic activity of MPC-0767 and ATO was due to a more complete abrogation of FLT3-ITD oncogenic signaling. […] After this time cells were harvested for the assessment of cell surface FLT3 expression by flow cytometry. To additionally measure the effects of abrogating FLT3, we assessed phospho-ERK (pERK) and phospho-S6 (pS6), as these are two known downstream effectors.
# [2] = system: phospho-S6 in MV-4-11 cells; assay: Phospho-S6 by flow cytometry; format: cell-based; settings: MV-4-11, 1 μM, 24 hours
# Procedure: as §1
# [3] = system: PD-L1 on primary AML patient samples; assay: PD-L1 cell surface expression by flow cytometry; format: cell-based, human; settings: 24 hours
# Procedure: To study whether MPC-0767 blocks IFN-γ-induced PD-L1 expression, six AML patient samples harboring FLT3 WT (n=2) or FLT3-ITD (n=4) were treated with human IFN-γ (50 ng/ml) alone, MPC-0767 (1 μM) alone or the combination of the two for 24 hours. Cells were then harvested to assess PD-L1 cell surface expression by flow cytometry. Cells were also stained with the AML blast markers CD34 or CD45 (to gate on the blast population) and a viability stain to gate on viable cells.
# MOLM16 cells = assay: CellTiter-Glo cell viability; format: cell-based; settings: MOLM16, 72 h
# OCI-AML2 AML cell line = assay: In vitro T-cell-mediated killing assay (active caspase-3); format: cell-based; settings: MPC-0767 2 μM overnight, then pp65 enriched CD8+ T cells 4 hours
# Procedure: The ability of MPC-0767 to increase T cell killing was determined in an in vitro T-cell-mediated killing assay. The OCI-AML2 AML cell line was labeled with the cell staining dye CFSE and treated overnight with MPC-0767 (2 μM) and human cytomegalovirus pp65495-503 peptide. […] After 4 hours of co-culture, cells were harvested, fixed, permeabilized, and stained for the active form of caspase-3 as a direct read-out of apoptotic cell death.
# The CI is a quantitative measure used to determine whether the combined effect of a drug pair is synergistic, additive, or antagonistic. The CI is calculated as CI=(E1+E2)/E12, where E12 is a normalized biological response (e.g., % Caspase-3+ cells) for the combination of Drug A and Drug B, and E1 and E2 are the response measured for each single drug treatment, respectively. CI values less than 1 indicate synergy, with the magnitude of the effect indicated by how much less than 1 the synergy score is. A more detailed mathematical treatment of this relationship is described in Shin et al. 2018.
# [4] = system: PD-1+ Jurkat reporter cells with THP-1 AML cells; assay: Jurkat NFAT-luciferase reporter T cell activation with THP-1 cells; format: cell-based; settings: THP-1 treated overnight with IFNγ and MPC-0767 1 μM or 2 uM
# Text: The addition of antibodies that block the PD-1/PD-L1 pathway stimulate an increased T cell response in vitro, in pre-clinical animal models, and in cancer patients. This can lead to tumor regressions or tumor clearance in patients. To examine MPC-0767 effects on PD-L1 and T cell activation, we used a model system in which PD-1+ Jurkat T cells express luciferase under the control of the NFAT promoter (Promega, hereafter referred to Jurkat reporter cells). When T cells are stimulated through the T cell receptor (TCR), activation of the NFAT pathway drives expression of luciferase.
# We next determined whether MPC-0767 reduction of PD-L1 could increase T cell stimulation similar to anti-PD-L1 blocking antibodies. THP-1 cells were treated overnight with IFNγ in the presence or absence of MPC-0767 (1 μM or 2 uM). THP-1 cells were washed and a portion saved for flow cytometry analysis of PD-L1 expression. The remaining cells were incubated with Jurkat reporter cells and anti-CD3 (10 ng/ml) for 6 hours.
# [5] = system: MOLM-13 FLT3-ITD AML cell line; assay: Systemic survival xenograft study, MPC-0767 with venetoclax; settings: MPC-0767 100-60 mg/kg QD×24, vs vehicle
# Procedure: A systemic survival xenograft study was performed using the MOLM-13 FLT3-ITD harboring AML cell line.
# Before tumor cell inoculation, NOD/SCID mice were pre-treated for 2 days with a daily intraperitoneal injection of 100 mg/kg cyclophosphamide to facilitate engraftment of the human MOLM-13 tumor cells. After the injection of cyclophosphamide, the animals were allowed to recover for 24 hours prior to inoculation with human MOLM-13 tumor cells. Each mouse was then inoculated with 1×10^7 MOLM-13 cells in 100 μL PBS via intravenous tail vein injection. Mice were next randomized into 4 groups of 6. […] Viability and body weight loss were monitored daily.
structure (smiles),measurement,setting,value
C[C@H](N)C(=O)O[C@@H](C)C(=O)N1CCC(CCn2c(Sc3cc4c(cc3Br)OCO4)nc3c(N)ncnc32)CC1 [MPC-0767],IC50,"MOLM-14 cells (FLT3-ITD); MOLM-14, non-stromal media",423 nM
same,IC50,"MOLM-14 cells (FLT3-ITD); MOLM-14, stromal media (HS-5 conditioned)",627 nM
same,viability of KDM6A sgRNA cells vs non-targeting sgRNA,"MOLM-14 cells (FLT3-ITD); MOLM-14, MPC-0767 1 μM",conferred resistance to MPC-0767
same,reduction in cell surface FLT3,"[1]; MOLM-13, 1 μM",> 65%
same,FLT3 level (cell surface),"[1]; MOLM-13, MPC-0767 800 nM, ATO 625 nM or combination",reduced
same,reduction in phospho-S6,[2],> 70%
same,basal PD-L1 cell surface expression,[3]; MPC-0767 1 μM alone,did not significantly reduce basal PD-L1 cell surface expression
same,IFN-γ-induced PD-L1 cell surface expression,"[3]; MPC-0767 1 μM with IFN-γ 50 ng/ml, P=0.04",significantly reduced the IFN-γ-induced PD-L1 cell surface expression
same,EC50,MOLM16 cells,367 nM
same,MPC-0767 Sensitivity,MOLM16 cells,Sensitive (cell lines having EC50 values below 1 μM were considered to be sensitive)
same,Combination Index (CI) for apoptotic (active caspase-3+) cells,OCI-AML2 AML cell line,0.53
same,inhibition of T cell activation,[4],dose-dependently reduce inhibition of T cell activation
same,increase in median survival,[5],3.5 days
